# Key:
# Enterococcus faecium [1] = assay: Antimicrobial activity against Enterococcus faecium ATCC E007 assessed as reduction in microbial growth after 18 hrs by broth microdilution method; format: functional; conditions: ATCC E007, 18 h
# Staphylococcus aureus [2] = assay: Antimicrobial activity against methicillin-resistant Staphylococcus aureus MW2 assessed as reduction in microbial growth after 18 hrs by broth microdilution method; format: functional; conditions: MW2, 18 h
# Pseudomonas aeruginosa [3] = assay: Antimicrobial activity against Pseudomonas aeruginosa […] assessed as zone of inhibition at 10 mg/ml by Kirby-Bauer disk diffusion method; format: functional; conditions: read-out: IZ
# Micrococcus luteus = assay: Antimicrobial activity against Micrococcus luteus ATCC 10240 assessed as zone of inhibition at 10 mg/ml by Kirby-Bauer disk diffusion method; format: functional; conditions: read-out: IZ
# Proteus mirabilis = assay: Antimicrobial activity against Proteus mirabilis assessed as zone of inhibition after 18 hrs by disk diffusion method; format: functional
# Staphylococcus aureus [4] = assay: Antimicrobial activity methicillin-resistant against Staphylococcus aureus; format: functional
# Pseudomonas aeruginosa [5] = assay: Antimicrobial activity against Pseudomonas aeruginosa MTCC 741 assessed as reduction in microbial growth after 24 hrs by broth dilution method; format: functional; conditions: MTCC 741, 24 h
# Aspergillus niger = assay: Antifungal activity against Aspergillus niger MTCC 282 assessed as reduction in microbial growth after 48 hrs by broth dilution method; format: functional; conditions: MTCC 282, 48 h
# Staphylococcus aureus [6] = assay: Antimicrobial activity against Staphylococcus aureus MTCC 96 assessed as reduction in microbial growth after 24 hrs by broth dilution method; format: functional; conditions: MTCC 96, 24 h
# Proteus vulgaris = assay: Antimicrobial activity against Proteus vulgaris NCIM-2027 assessed as reduction in microbial growth after 24 hrs by CLSI based broth dilution method; format: functional; conditions: NCIM-2027, 24 h
# Staphylococcus aureus [7] = assay: Antimicrobial activity against Staphylococcus aureus NCIM-2079 assessed as reduction in microbial growth after 24 hrs by CLSI based broth dilution method; format: functional; conditions: NCIM-2079, 24 h
# Bacillus subtilis = assay: Antimicrobial activity against Bacillus subtilis NCIM-2063 assessed as reduction in microbial growth after 24 hrs by CLSI based broth dilution method; format: functional; conditions: NCIM-2063, 24 h
# Bacillus cereus [8] = assay: Antimicrobial activity against Bacillus cereus NCIM-2156 assessed as reduction in microbial growth after 24 hrs by CLSI based broth dilution method; format: functional; conditions: NCIM-2156, 24 h
# Escherichia coli [9] = assay: Antimicrobial activity against Escherichia coli NCIM-2065 assessed as reduction in microbial growth after 24 hrs by CLSI based broth dilution method; format: functional; conditions: NCIM-2065, 24 h
# Staphylococcus aureus [10] = assay: Antimicrobial activity against Staphylococcus aureus assessed as zone of inhibition at 1000 to 10000 ppm after 48 hrs; format: functional
# Staphylococcus aureus [11] = assay: Antimicrobial activity against methicillin-resistant Staphylococcus aureus CCARM 3167 assessed as reduction in microbial growth by serial dilution method; format: functional
# Staphylococcus aureus [12] = assay: Antimicrobial activity against quinolone-resistant Staphylococcus aureus CCARM 3519 assessed as reduction in microbial growth by serial dilution method; format: functional
# HepG2 = assay: Cytotoxicity against human HepG2 cells; format: cell-based
# Staphylococcus aureus [13] = assay: Antimicrobial activity against quinolone-resistant Staphylococcus aureus CCARM 3505 assessed as reduction in microbial growth by serial dilution method; format: functional
# Staphylococcus aureus [14] = assay: Antimicrobial activity against methicillin-resistant Staphylococcus aureus CCARM 3506 assessed as reduction in microbial growth by serial dilution method; format: functional
# Aspergillus clavatus = assay: Antifungal activity against Aspergillus clavatus MTCC 1323 assessed as reduction in microbial growth after 48 hrs by broth dilution method; format: functional; conditions: MTCC 1323, 48 h
# Staphylococcus aureus [15] = assay: Antimicrobial activity against methicillin-resistant Staphylococcus aureus CCARM 3090 assessed as reduction in microbial growth incubated for 18 to 24 hrs by two-fold serial dilution method; format: functional
# Pseudomonas aeruginosa [16] = assay: Antimicrobial activity against multi drug-resistant Pseudomonas aeruginosa CCARM 2095 assessed as reduction in microbial growth incubated for 18 to 24 hrs by two-fold serial dilution method; format: functional
# Staphylococcus aureus [17] = assay: Antimicrobial activity against methicillin-resistant Staphylococcus aureus CCARM 3095 assessed as reduction in microbial growth incubated for 18 to 24 hrs by two-fold serial dilution method; format: functional
# Staphylococcus aureus [18] = assay: Antimicrobial activity against methicillin-resistant Staphylococcus aureus CCARM 3089 assessed as reduction in microbial growth incubated for 18 to 24 hrs by two-fold serial dilution method; format: functional
# Pseudomonas aeruginosa [19] = assay: Antimicrobial activity against multi drug-resistant Pseudomonas aeruginosa CCARM 2109 assessed as reduction in microbial growth incubated for 18 to 24 hrs by two-fold serial dilution method; format: functional
# Enterococcus faecium [20] = assay: Antimicrobial activity against vancomycin-resistant Enterococcus faecium ATCC 51559 assessed as reduction in microbial growth incubated for 18 to 24 hrs by two-fold serial dilution method; format: functional
# Helicobacter pylori = assay: Antimicrobial activity against Helicobacter pylori assessed as zone of inhibition; format: functional
# Escherichia coli [21] = assay: Antimicrobial activity against Escherichia coli assessed as zone of inhibition after 18 hrs by disk diffusion method; format: functional
# Escherichia coli [22] = assay: Antimicrobial activity against Escherichia coli MTCC 443 assessed as reduction in microbial growth after 24 to 48 hrs by broth dilution method; format: functional
# Pseudomonas aeruginosa [23] = assay: Antimicrobial activity against Pseudomonas aeruginosa MTCC 1688 assessed as reduction in microbial growth after 24 to 48 hrs by broth dilution method; format: functional
# Escherichia coli [24] = assay: Antimicrobial activity against Escherichia coli after 24 hrs by agar well diffusion assay; format: functional
# Staphylococcus aureus [25] = assay: Antimicrobial activity against methicillin-resistant Staphylococcus aureus assessed as reduction in microbial growth after 24 to 48 hrs by microdilution susceptibility test; format: functional
# Staphylococcus aureus [26] = assay: Antimicrobial activity against Staphylococcus aureus […] assessed as reduction in microbial growth after 24 to 48 hrs by microdilution susceptibility test; format: functional
# Klebsiella pneumoniae = assay: Antimicrobial activity against multi drug-resistant Klebsiella pneumoniae assessed as reduction in microbial growth by two-fold serial dilution method; format: functional
# Escherichia coli [27] = assay: Antimicrobial activity against multi drug-resistant Escherichia coli assessed as reduction in microbial growth after 24 to 48 hrs by microdilution susceptibility test; format: functional
# Staphylococcus aureus [28] = assay: Antimicrobial activity against methicillin-resistant Staphylococcus aureus clinical isolate MRSA1 assessed as reduction in microbial growth by two-fold serial dilution method; format: functional
# Escherichia coli [29] = assay: Antimicrobial activity against Escherichia coli ATCC 25922 assessed as reduction in microbial growth after 24 to 48 hrs by microdilution susceptibility test; format: functional
# Candida albicans = assay: Antifungal activity against Candida albicans MTCC 183 assessed as reduction in microbial growth after 48 hrs by broth dilution method; format: functional; conditions: MTCC 183, 48 h
# Bacillus cereus [30] = assay: Antimicrobial activity against Bacillus cereus MTCC 430 assessed as reduction in microbial growth after 24 hrs by broth dilution method; format: functional; conditions: MTCC 430, 24 h
# Lacticaseibacillus casei = assay: Antibacterial activity against Lactobacillus casei NCIM-2651 assessed as reduction in microbial growth incubated for 24 hrs by broth dilution method; format: functional; conditions: NCIM-2651, 24 h
# Bacillus cereus [31] = assay: Antibacterial activity against Bacillus cereus NCIM-2458 assessed as reduction in microbial growth incubated for 24 hrs by broth dilution method; format: functional; conditions: NCIM-2458, 24 h
smiles,measurement,setting,value
CC(C)(C)Nc1nc(NN)nc(NC(C)(C)C)n1,MIC,Enterococcus faecium [1],8 µg/mL
same,MIC,Staphylococcus aureus [2],8 µg/mL
Cc1cc(C)n(-c2nc(NCc3ccccc3)nc(N3CCCCC3)n2)n1,zone of inhibition at 10000 µg/mL,Pseudomonas aeruginosa [3],19 mm
same,zone of inhibition at 10000 µg/mL,Micrococcus luteus,22 mm
O=C(O)c1cn(C2CC2)c2cc(N3CCNCC3)c(F)cc2c1=O [CIPROFLOXACIN],inhibition zone (IZ),Proteus mirabilis,22 mm
same,MIC,Staphylococcus aureus [4],4 µg/mL
COc1nc(Sc2cccc(F)c2)nc(-c2ccc(C#N)cc2)n1,MIC,Pseudomonas aeruginosa [5],3.12 µg/mL
same,MIC,Aspergillus niger,3.12 µg/mL
COc1nc(Sc2ccc(F)cc2)nc(-c2ccc(C#N)cc2)n1,MIC,Staphylococcus aureus [6],3.12 µg/mL
O=C1CSC(c2ccccc2[N+](=O)[O-])N1c1nc(Nc2ccccc2[N+](=O)[O-])nc(Nc2ccccc2[N+](=O)[O-])n1 (stereo not drawn),MIC,Proteus vulgaris,1.95 to 15.6 µg/mL
same,MIC,Staphylococcus aureus [7],1.95 to 15.6 µg/mL
same,MIC,Bacillus subtilis,1.95 to 15.6 µg/mL
same,MIC,Bacillus cereus [8],1.95 to 15.6 µg/mL
same,MIC,Escherichia coli [9],1.95 to 15.6 µg/mL
CC(=O)c1nnc2c3c(-c4ccccc4)c(-c4ccccc4)nnc3nn2c1C,inhibition zone (IZ),Staphylococcus aureus [10],44 mm
NC1=NC(c2ccc3cc(OCc4ccc(Cl)cc4Cl)ccc3c2)N=C(N2CCOCC2)N1 (stereo not drawn),MIC,Staphylococcus aureus [11],2.1 µM
same,MIC,Staphylococcus aureus [12],2.1 µM
same,IC50,HepG2,34.3 µM
same,MIC,Staphylococcus aureus [13],2.1 µM
same,MIC,Staphylococcus aureus [14],2.1 µM
COc1nc(Sc2ccc(Cl)cc2)nc(-c2ccc(C#N)cc2)n1,MIC,Aspergillus clavatus,3.12 µg/mL
N=C(N)NCCCN(CCCNC(=N)N)c1nc(NCCC(c2ccccc2)c2ccccc2)nc(NCCC(c2ccccc2)c2ccccc2)n1,MIC,Staphylococcus aureus [15],2 µM
same,MIC,Pseudomonas aeruginosa [16],4 µM
same,MIC,Staphylococcus aureus [17],2 µM
same,MIC,Staphylococcus aureus [18],2 µM
same,MIC,Pseudomonas aeruginosa [19],4 µM
same,MIC,Enterococcus faecium [20],4 µM
Cc1c(C(=O)NNc2ccccc2)nnc2c3c(-c4ccccc4)c(-c4ccccc4)nnc3nn12,inhibition zone (IZ),Staphylococcus aureus [10],4 mm
Nc1nc(-n2c(-c3ccc([N+](=O)[O-])cc3)nc3ccccc3c2=O)nnc1-c1ccccc1,MIC,Helicobacter pylori,25 µg/mL
N=C(N)NCCCN(CCCNC(=N)N)c1nc(NCc2cccc3ccccc23)nc(NCc2cccc3ccccc23)n1,MIC,Staphylococcus aureus [15],2 µM
same,MIC,Pseudomonas aeruginosa [16],8 µM
same,MIC,Staphylococcus aureus [17],2 µM
same,MIC,Staphylococcus aureus [18],2 µM
same,MIC,Pseudomonas aeruginosa [19],8 µM
same,MIC,Enterococcus faecium [20],2 µM
CCOc1ccc(/C=N/NC(=O)Cn2c3ccccc3c3nnc(SCC(=O)CN/N=C/Cc4ccc(OCC)cc4)nc32)cc1,inhibition zone (IZ),Escherichia coli [21],22 mm
same,inhibition zone (IZ),Proteus mirabilis,22 mm
O=[N+]([O-])c1ccc(Nc2nc(Nc3ccc(S(=O)(=O)Nc4ncccn4)cc3)nc(N3CCCCC3)n2)cc1,MIC,Escherichia coli [22],25 µg/mL
same,MIC,Pseudomonas aeruginosa [23],50 µg/mL
CC1(C)c2ccccc2Oc2nc(Cl)nc(n2)OCc2cccc(n2)COc2nc(Cl)nc(n2)Oc2ccccc21,MIC,Escherichia coli [24],50 µg/mL
CC1(C)S[C@@H]2[C@H](NC(=O)[C@H](N)c3ccccc3)C(=O)N2[C@H]1C(=O)O [AMPICILLIN],MIC,Escherichia coli [22],100 µg/mL
same,MIC,Staphylococcus aureus [25],> 250 µg/mL
same,MIC,Staphylococcus aureus [26],12.5 µg/mL
same,MIC,Klebsiella pneumoniae,12.5 µg/mL
same,MIC,Pseudomonas aeruginosa [23],100 µg/mL
same,MIC,Escherichia coli [27],> 250 µg/mL
same,MIC,Staphylococcus aureus [28],6.25 µg/mL
same,MIC,Escherichia coli [29],25 µg/mL
O=C1CSC(c2ccc([N+](=O)[O-])cc2)N1c1nc(Nc2ccc([N+](=O)[O-])cc2)nc(Nc2ccc([N+](=O)[O-])cc2)n1 (stereo not drawn),MIC,Proteus vulgaris,1.95 to 15.6 µg/mL
same,MIC,Staphylococcus aureus [7],1.95 to 15.6 µg/mL
same,MIC,Bacillus subtilis,1.95 to 15.6 µg/mL
same,MIC,Bacillus cereus [8],1.95 to 15.6 µg/mL
same,MIC,Escherichia coli [9],1.95 to 15.6 µg/mL
COc1nc(Sc2cccc(Cl)c2)nc(-c2ccc(C#N)cc2)n1,MIC,Candida albicans,3.12 µg/mL
same,MIC,Bacillus cereus [30],6.25 µg/mL
Nc1nc(Nc2ccccc2)nc(Nc2nc(-c3ccc(Cl)c(Cl)c3)cs2)n1,MIC,Lacticaseibacillus casei,3.12 µg/mL
same,MIC,Bacillus cereus [31],3.12 µg/mL
O=C(CN/N=C/Cc1ccccn1)CSc1nnc2c3ccccc3n(CC(=O)N/N=C/c3ccccn3)c2n1,inhibition zone (IZ),Escherichia coli [21],24 mm
same,inhibition zone (IZ),Proteus mirabilis,24 mm
Nc1nc(Nc2nc(-c3ccc(Cl)c(Cl)c3)cs2)nc(Sc2ccccc2)n1,MIC,Lacticaseibacillus casei,3.12 µg/mL
same,MIC,Bacillus cereus [31],3.12 µg/mL
Clc1nc2nc(n1)Oc1ccc3ccccc3c1Cc1c(ccc3ccccc13)Oc1nc(Cl)nc(n1)OCc1cccc(n1)CO2,MIC,Escherichia coli [24],50 µg/mL
CC[C@H](C)[C@H](NC(=O)CN)C(=O)NCC(=O)N[C@@H](C)C(=O)N[C@H](C(=O)N[C@@H](CC(C)C)C(=O)N[C@@H](CCCCN)C(=O)N[C@H](C(=O)N[C@@H](CC(C)C)C(=O)N[C@H](C(=O)N[C@H](C(=O)NCC(=O)N[C@@H](CC(C)C)C(=O)N1CCC[C@H]1C(=O)N[C@@H](C)C(=O)N[C@@H](CC(C)C)C(=O)N[C@H](C(=O)N[C@@H](CO)C(=O)N[C@@H](Cc1c[nH]c2ccccc12)C(=O)N[C@H](C(=O)N[C@@H](CCCCN)C(=O)N[C@@H](CCCNC(=N)N)C(=O)N[C@@H](CCCCN)C(=O)N[C@@H](CCCNC(=N)N)C(=O)N[C@@H](CCC(N)=O)C(=O)N[C@@H](CCC(N)=O)C(N)=O)[C@@H](C)CC)[C@@H](C)CC)[C@@H](C)O)[C@@H](C)O)C(C)C)C(C)C [MELITTIN],MIC,Enterococcus faecium [20],2 µM

# Source: ChEMBL document CHEMBL4321839, “Structure-activity relationships (SAR) of triazine derivatives: Promising antimicrobial agents” (Eur J Med Chem, 2020)
